Test results reported in US8716246B2, “Azuvirin peptides” (The Regents of the University of California, priority 2011, dated 2014).
Entries after “also recorded” stand apart in the source; their conditions may differ. Bridge positions count the residues as written; N and C are the ends. Square brackets hold non-standard residues; d marks the D form. Ends that are not written are not given here. Peptide text beside a SMILES is read from it. * marks the point of attachment. Oic = O=C(O)[C@@H]1C[C@@H]2CCCC[C@@H]2N1; Cha = N[C@@H](CC1CCCCC1)C(=O)O; Tle = CC(C)(C)[C@H](N)C(=O)O; Nicotinoyl = O=C(c1cccnc1)*; Acm = CC(=O)NC*

Columns and labels:
rhEphB2/Fc = rhEphB2/Fc (Homo sapiens, UniProt P29323); assay: SPR binding to immobilized rhEphB2/Fc (Biacore 3000); design: Fc; purchased R&D Systems, Inc., Minneapolis, Minn; details: SPR; averaged from at least 4 independent experiments; read-out: KD ± SEM, rhEphB2/Fc
Experimental: (§1) Binding to selected ephrin receptors was measured by surface plasmon resonance on a Biacore3000 instrument. Commercially available ephrin receptors: EphA2, EphB2 and EphB4 (R&D Systems) were immobilized on a CM-5 chip by amine coupling and tested peptides were passed over a chip surface as analytes.
(§2) Binding studies. Binding studies were performed by surface plasmon resonance (SPR) on a BIAcore 3000 system (BiaCore AB, Piscataway, N.J.). BIAcore CM5 sensor chips were utilized in all experiments. Binding studies were performed in HBS-EP running buffer (pH=7.4) containing 10 mM HEPES, 150 mM NaCl, 3 mM EDTA, and 0.005% polysorbate 20. Commercially available ephrin receptors: EphA2, EphB2 and EphB4 (R&D Systems, Inc., Minneapolis, Minn.) were immobilized on a CM5 sensor chip using the amine coupling method. The chip was activated by mixing 400 mM N-ethyl-N-(3-dimethylaminopropyl)-carbodiimide hydrochloride and 100 mM N-hydroxysuccinimide. Residual reactive groups on the chip surface were blocked using 1.0 M ethanolamine/HCl (pH=8.5). The flow cell-1 chip, which served as a control, lacked immobilized protein but was treated with N-ethyl-N-(3-dimethylaminopropyl)-carbodiimide hydrochloride, N hydroxysuccinimide, and ethanolamine/HCl. Binding signals were corrected for nonspecific binding by subtracting the flow cell-1 signal (blank surface). To regenerate chip surfaces, bound ligands were removed with 10 mM HCl. Data were analyzed with BIAevaluation 4.1 software (Biacore, Piscataway, N.J.).

[1] = test system: Lewis lung carcinoma (LLC); assay: Artificial metastasis model: i.v. Lewis lung carcinoma plus local thoracic irradiation, lung tumor nodules counted; format: in vivo, C57BL/6 mice; details: for tumor colonies lower / radiation efficacy improved versus radiation alone: Example 1: 500 μg (~10 mg/kg) total i.p. in 4 daily doses 60 min before 4 Gy thoracic irradiation, equimolar controls, nodules day 14; for radiosensitizing effect in artificial metastasis model (in words): with radiation therapy (4 x 4 Gy), peptide or equimolar nicotinamide i.p. from day 4 after i.v. LLC
Experimental: (§3) The AzV-36-Nic conjugate was tested in vivo for its ability to radiosensitize Lewis lung carcinoma (LCC) in an artificial metastasis model. Briefly, C57BL/6 mice (8 weeks old) were intravenously injected with 5×10^5 cells of syngeneic LLC. Various treatments were initiated 4 days later, after cancer engraftment. In general, each animal received intraperitoneally a total of 500 μg (˜10 mg/kg) of peptide in 4 daily doses 60 mins before local thoracic irradiation (4 Gy). Animals were sacrificed on the 14th day of the experiment and lung tumor nodules were counted.
as §3, with “Animal experiments.” for “The AzV-36-Nic conjugate was tested in vivo for its ability to radiosensitize Lewis lung carcinoma (LCC) in an artificial metastasis model.”, “min” for “mins”
Animal experiments. C57BL/6 gnotobiotic mice (8 weeks old) were obtained from the UCLA AALAC accredited Department of Radiation Oncology Facility and intravenously injected with 5×10^5 cells of syngeneic LLC. Various treatments were initiated 4 days later, after cancer engraftment. In general, each animal received intraperitoneally a total of 500 μg (˜25 mg/kg) of peptide (or equimolar amount of nicotinamide) in 4 daily doses 60 min before local thoracic irradiation (0 or 4 Gy, total dose: 4.4=16 Gy) that was delivered using an Atomic Energy of Canada cesium gamma irradiator with a dose rate of approximately 0.6 Gy/min with the rest of the body shielded. Prior to irradiation animals were anesthetized by intraperitoneal injection of ketamine/xylazine mixture. Animals were sacrificed on the 14th day of the experiment and lung tumor nodules were counted. All experiments were approved by the UCLA Animal Care and Use Committee and conformed to local and national guidelines.

rhEphA2 = rhEphA2 (Homo sapiens, UniProt P29317); assay: SPR binding to immobilized rhEphA2 (Biacore 3000); design: purchased R&D Systems, Inc., Minneapolis, Minn; details: SPR; averaged from at least 4 independent experiments; read-out: KD ± SEM, rhEphA2
Experimental: as §1, §2

rhEphB4 = molecular target: T1, rhEphB4 (Homo sapiens, UniProt P54760); assay: SPR binding to immobilized rhEphB4 (Biacore 3000); details: SPR; averaged from at least 4 independent experiments; read-out: KD ± SEM, rhEphB4
T1 construct: purchased R&D Systems, Inc., Minneapolis, Minn
T1 sequence (P54760 16-987): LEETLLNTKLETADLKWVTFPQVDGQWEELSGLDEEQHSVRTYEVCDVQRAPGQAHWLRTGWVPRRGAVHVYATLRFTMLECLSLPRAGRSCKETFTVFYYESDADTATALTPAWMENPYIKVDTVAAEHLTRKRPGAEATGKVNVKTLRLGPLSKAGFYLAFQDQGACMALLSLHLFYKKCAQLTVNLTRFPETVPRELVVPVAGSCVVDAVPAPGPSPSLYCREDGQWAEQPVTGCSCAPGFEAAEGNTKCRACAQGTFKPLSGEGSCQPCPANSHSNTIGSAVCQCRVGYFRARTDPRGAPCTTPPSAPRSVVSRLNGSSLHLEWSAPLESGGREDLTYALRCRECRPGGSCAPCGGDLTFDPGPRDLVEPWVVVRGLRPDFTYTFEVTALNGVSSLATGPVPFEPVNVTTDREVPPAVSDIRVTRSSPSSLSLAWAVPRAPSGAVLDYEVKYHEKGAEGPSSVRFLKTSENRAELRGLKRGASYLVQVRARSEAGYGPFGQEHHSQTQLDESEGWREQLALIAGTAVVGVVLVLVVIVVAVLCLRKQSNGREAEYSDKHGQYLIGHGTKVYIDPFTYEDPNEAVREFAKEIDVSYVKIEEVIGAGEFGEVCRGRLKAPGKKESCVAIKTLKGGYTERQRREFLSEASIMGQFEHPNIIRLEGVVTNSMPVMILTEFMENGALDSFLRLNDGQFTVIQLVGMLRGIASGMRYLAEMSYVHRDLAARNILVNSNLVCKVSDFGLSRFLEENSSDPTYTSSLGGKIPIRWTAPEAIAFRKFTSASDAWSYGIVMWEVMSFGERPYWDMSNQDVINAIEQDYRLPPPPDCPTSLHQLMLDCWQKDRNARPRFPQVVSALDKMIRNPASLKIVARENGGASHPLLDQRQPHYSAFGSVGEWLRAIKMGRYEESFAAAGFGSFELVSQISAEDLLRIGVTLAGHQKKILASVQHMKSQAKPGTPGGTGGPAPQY
Experimental: as §1, §2

C[C@@H](O)[C@@H]1NC(=O)[C@H](CCCNC(=N)N)NC(=O)[C@H](Cc2c[nH]cn2)NC(=O)[C@@H](CCCNC(=N)N)NC(=O)[C@@H]2C[C@@H]3CCCC[C@@H]3N2C(=O)[C@H](CC2CCCCC2)NC(=O)[C@H](C(C)(C)C)NC(=O)[C@@H](NC(=O)[C@H](CC2CCCCC2)NC(=O)[C@H](CC2CCCCC2)NC(=O)[C@@H](CCCCN)NC(=O)[C@@H](N)Cc2ccc(O)cc2)CSSC[C@@H](C(=O)N[C@H](CCCCN)C(N)=O)NC(=O)[C@H](CC2CCCCC2)NC1=O [AzV36, Yk-Cha-Cha-Cys-Tle-Cha-Oic-rHRT-Cha-Cys-k-CONH] (H-Y[dK][Cha][Cha]C[Tle][Cha][Oic][dR]HRT[Cha]C[dK]-NH2; disulfide 5-14; N-terminus assumed)
Kd (rhEphB2/Fc): 164 ± 11 nM | tumor colonies lower / radiation efficacy improved versus radiation alone [1]: 1.3 fold | Kd (rhEphA2): 126 ± 11 nM | Kd (rhEphB4): 106 ± 15 nM

CC(=O)NCSC[C@H](NC(=O)[C@H](CC1CCCCC1)NC(=O)[C@H](CC1CCCCC1)NC(=O)[C@@H](CCCCN)NC(=O)[C@@H](N)Cc1ccc(O)cc1)C(=O)N[C@H](C(=O)N[C@@H](CC1CCCCC1)C(=O)N1[C@H](C(=O)N[C@H](CCCNC(=N)N)C(=O)N[C@@H](Cc2c[nH]cn2)C(=O)N[C@@H](CCCNC(=N)N)C(=O)N[C@H](C(=O)N[C@@H](CC2CCCCC2)C(=O)N[C@@H](CSCNC(C)=O)C(=O)N[C@H](CCCCN)C(N)=O)[C@@H](C)O)C[C@@H]2CCCC[C@@H]21)C(C)(C)C [AzV36-L] (H-Y[dK][Cha][Cha]C(Acm)[Tle][Cha][Oic][dR]HRT[Cha]C(Acm)[dK]-NH2; N-terminus assumed)
radiosensitizing effect in artificial metastasis model (in words) [1]: no or minimal radiosensitizing effect; also recorded: only marginally improved radiation efficacy; also recorded: ineffective

NC(=O)c1cccnc1 [nicotinamide, reference compound]
radiosensitizing effect in artificial metastasis model (in words) [1]: no or minimal radiosensitizing effect; also recorded: only marginally improved radiation efficacy | radiosensitizing effect in artificial metastasis model (in words) ([1]; listed as Nic): ineffective

AzV-36-Nic: Example 1: AzV-36 conjugated with nicotinic acid via amide bond; linear, 15 residues; probably AzV36-NicL (Y[dK](Nicotinoyl)[Cha][Cha]C[Tle][Cha][Oic][dR]HRT[Cha]C[dK]-NH2; not fully specified (bridges); printed as YkNic-Cha-Cha-Cys-Tle-Cha-Oic-rHRT-Cha-Cys-k-CONH; cysteine pairing not given here)
tumor colonies lower / radiation efficacy improved versus radiation alone [1]: 3-10 fold
